Measured values from patent publication US20100179158A1, “INHIBITORS OF CYCLIC AMP PHOSPHODIESTERASES” (priority 2007, published 2010).

Columns and labels:
PDE2A [1] = target: T1, PDE2A (Mus musculus, UniProt Q922S4); assay: fbp1-lacZ β-galactosidase assay, PDE2A strain LWP367; format: cell-based, murine; conditions: specific activity per milligram of soluble protein, average ± SD
T1 construct: targets used in the assays are full-length proteins (as opposed to simply the catalytic domain); expressed in transfected cells; host or cells: Schizosaccharomyces pombe strains LWP367 and LWP371
T1 sequence (Q922S4 1-939): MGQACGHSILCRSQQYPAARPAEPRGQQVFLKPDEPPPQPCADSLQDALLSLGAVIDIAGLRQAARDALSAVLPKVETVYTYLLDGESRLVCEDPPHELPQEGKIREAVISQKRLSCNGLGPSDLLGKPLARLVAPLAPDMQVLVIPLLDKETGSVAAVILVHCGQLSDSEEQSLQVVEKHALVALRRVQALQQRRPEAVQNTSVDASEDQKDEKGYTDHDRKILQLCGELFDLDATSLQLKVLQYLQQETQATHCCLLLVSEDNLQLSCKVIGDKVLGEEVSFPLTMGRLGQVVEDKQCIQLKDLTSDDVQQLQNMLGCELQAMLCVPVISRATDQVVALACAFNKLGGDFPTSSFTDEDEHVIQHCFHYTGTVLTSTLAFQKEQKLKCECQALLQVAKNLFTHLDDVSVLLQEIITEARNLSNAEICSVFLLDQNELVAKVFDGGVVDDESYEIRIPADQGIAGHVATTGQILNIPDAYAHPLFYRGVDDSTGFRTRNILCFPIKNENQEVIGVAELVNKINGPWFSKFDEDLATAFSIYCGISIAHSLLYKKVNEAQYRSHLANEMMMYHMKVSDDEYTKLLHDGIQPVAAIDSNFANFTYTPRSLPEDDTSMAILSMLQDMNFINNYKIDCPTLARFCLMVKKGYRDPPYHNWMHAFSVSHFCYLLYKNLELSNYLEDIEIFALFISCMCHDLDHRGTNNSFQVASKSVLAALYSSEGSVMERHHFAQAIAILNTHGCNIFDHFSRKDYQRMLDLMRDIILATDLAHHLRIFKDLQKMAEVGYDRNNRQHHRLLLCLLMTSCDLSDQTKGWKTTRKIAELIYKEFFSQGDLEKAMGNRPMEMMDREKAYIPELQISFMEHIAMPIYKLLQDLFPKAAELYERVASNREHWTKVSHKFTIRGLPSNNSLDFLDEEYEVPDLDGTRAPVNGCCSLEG
Protocol: (§1) β-galactosidase assays and characterization of 5FOA-sensitivity were carried out as previously described^10. cAMP assays were performed on exponential phase cells grown in EMM complete medium (3% glucose), using the Assay Designs cAMP EIA kit, according to manufacturer's instructions (Assay Designs, Ann arbor, MI).
(§2) The effect of known PDE inhibitors on the expression of the fbp1-lacZ fusion in murine PDE-expressing strains was tested. […] For Table 4 β-galactosidase activity was determined from 3 to 4 independent exponential phase cultures. The average±SD represents specific activity per milligram of soluble protein.

PDE2A [2] = target: T1, PDE2A; assay: cAMP assay in yeast strain LWP371 expressing PDE2A; format: cell-based, murine; conditions: 20 μM EHNA as compared to 200 μM, one-hour time point
Protocol: as §1
(§3) Thus, PDE inhibition can be indirectly quantitated by measuring the effect of a compound on cAMP levels in target yeast strains.

PDE8A [3] = target: T2, PDE8A (Mus musculus, UniProt O88502); assay: fbp1-lacZ β-galactosidase assay, PDE8A strain DDP13; format: cell-based, murine; conditions: specific activity per milligram of soluble protein, average ± SD
T2 construct: targets used in the assays are full-length proteins (as opposed to simply the catalytic domain); expressed in transfected cells; host or cells: Schizosaccharomyces pombe strains DDP13 and CHP1141
T2 sequence (O88502 1-823): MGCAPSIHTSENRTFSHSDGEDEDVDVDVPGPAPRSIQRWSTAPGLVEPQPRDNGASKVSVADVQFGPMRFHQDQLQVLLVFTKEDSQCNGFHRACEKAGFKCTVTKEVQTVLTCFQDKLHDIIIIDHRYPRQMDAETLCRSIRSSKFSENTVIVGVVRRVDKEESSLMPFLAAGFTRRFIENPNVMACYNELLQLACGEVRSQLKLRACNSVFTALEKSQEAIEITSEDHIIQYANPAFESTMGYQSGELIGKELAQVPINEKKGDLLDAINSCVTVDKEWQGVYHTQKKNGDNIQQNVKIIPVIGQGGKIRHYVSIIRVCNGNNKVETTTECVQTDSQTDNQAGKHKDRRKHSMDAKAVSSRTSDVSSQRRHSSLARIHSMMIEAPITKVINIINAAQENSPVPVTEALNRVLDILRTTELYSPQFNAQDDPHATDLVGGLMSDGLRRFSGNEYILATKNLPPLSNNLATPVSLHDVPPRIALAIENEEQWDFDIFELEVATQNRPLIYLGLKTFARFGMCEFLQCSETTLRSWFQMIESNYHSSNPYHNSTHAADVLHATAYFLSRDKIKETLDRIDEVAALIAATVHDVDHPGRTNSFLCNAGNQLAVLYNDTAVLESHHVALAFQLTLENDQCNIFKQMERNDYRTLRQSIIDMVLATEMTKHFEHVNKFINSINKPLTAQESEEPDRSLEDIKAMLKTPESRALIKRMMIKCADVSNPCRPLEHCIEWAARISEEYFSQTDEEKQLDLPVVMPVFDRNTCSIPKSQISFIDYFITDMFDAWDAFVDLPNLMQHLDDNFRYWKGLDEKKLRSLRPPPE
Protocol: as §1, §2

PDE8A [4] = target: T2, PDE8A; assay: cAMP assay in yeast strain CHP1141 expressing PDE8A; format: cell-based, murine; conditions: rolipram 20 and 200 μM, one-hour time point
Protocol: as §1, §3

Cgs2 = target: T3, Cgs2 (Schizosaccharomyces pombe, UniProt P36599); assay: fbp1-lacZ β-galactosidase assay, Cgs2 strain CHP861; format: cell-based; conditions: specific activity per milligram of soluble protein, average ± SD
T3 construct: the wild-type S. pombe Cgs2^+ PDE; endogenous in cells; host or cells: Schizosaccharomyces pombe strain CHP861
T3 sequence (P36599 1-346): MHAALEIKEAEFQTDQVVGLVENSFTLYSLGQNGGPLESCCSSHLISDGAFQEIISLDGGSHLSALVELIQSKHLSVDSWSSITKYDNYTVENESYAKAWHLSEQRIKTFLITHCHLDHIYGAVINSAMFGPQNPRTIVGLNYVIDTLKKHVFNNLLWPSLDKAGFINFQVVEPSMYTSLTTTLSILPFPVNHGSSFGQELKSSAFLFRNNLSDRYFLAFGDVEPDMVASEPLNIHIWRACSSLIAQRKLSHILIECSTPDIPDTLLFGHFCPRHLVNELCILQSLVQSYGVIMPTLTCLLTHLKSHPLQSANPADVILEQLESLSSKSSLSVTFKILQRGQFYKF
Protocol: as §1, §2

[5] = tested on: PDE2A, PDE4A, PDE4B, Cgs2; assay: High throughput 5FOA growth screens of bioactive libraries; format: cell-based, murine; Schizosaccharomyces pombe; conditions: average 20 μM; composite Z score cut-off ≧8.53
Protocol: High throughput drug screens were carried out at the Broad Institute's Chemical Biology Program screening facility (Broad Institute, Cambridge, Mass.). Depending upon the strain, cultures were pregrown to exponential phase in EMM complete medium containing from 0.5 to 2.5 mM cAMP to repress fbp1-ura4 transcription. […] Starting cell concentrations ranged from 0.5×10^5 to 4×10^5 cells/ml depending on the screening strain. […] Other positive control dishes contained 5 mM cAMP in the 5FOA medium. Cultures were grown for 48 hours at 30° C., sealed in an airtight container with moist paper towels to prevent evaporation. Optical densities (OD600) of cultures were measured using a microplate reader. Bioinformatic analysis of the results to determine composite Z scores was performed as previously described^30, 31.

PDE7A = target: T4, PDE7A (Homo sapiens, UniProt Q13946); assay: cAMP assay in yeast strain expressing PDE7A; format: cell-based
T4 construct: targets used in the assays are full-length proteins (as opposed to simply the catalytic domain); expressed in transfected cells; host or cells: Schizosaccharomyces pombe, gene integrated at the cgs2 locus

[6] = tested on: PDE4A, PDE4B, PDE4D, PDE7A; assay: Overall PDE inhibitor profile from the yeast assays (table footnotes, summary); format: cell-based
Text: PDE inhibitors were identified using methods described herein, such as high throughput drug screens on genetically engineered fission yeast strains that express drug targets (e.g., PDE4A and/or PDE4B, which are anti-inflammatory targets). PDE inhibitors were identified based on their ability to stimulate growth and compounds were identified because they were effective in live cells. In addition, targets used in the assays are full-length proteins (as opposed to simply the catalytic domain) and the assay used included a built-in toxicity test, permeability test and stability test. The inhibitors identified display a very high degree of target specificity. Compounds identified include inhibitors that act on two of three PDE4 family enzymes and inhibitors that act on combinations of PDE4 and PDE7 strains. […] Limited inhibition of PDE4D by a PDE inhibitor is desirable, in view of the fact that inhibition of PDE4D causes emesis and cardiac arrhythmias. Subtype specificity was confirmed by means of cAMP assays.
Cells were pregrown in EMM medium [MP Biomedicals (Solon, OH), 3% glucose, filter-sterilized to avoid carmelization, which would introduce variability into the optical density of the medium] containing from 0 mM to 2.5 mM cAMP (or either 0.5 mM or 1.0 mM cGMP). This was to repress expression of the fbp1-ura4 reporter prior to exposure of cells to 5FOA medium. Cells were grown at 30° C. to exponential phase (approximately 10^7 cells/ml). Cells were collected by centrifugation and resuspended in 5FOA medium, and 25 μl were transferred to 384-well microtiter dishes (untreated, with flat clear bottoms) that had been pre-filled with 25 μl 5FOA medium and pre-pinned with 100 nl of compounds (stock solutions were generally 10 mM). Starting cell concentrations ranged from 0.5×10^5 to 4×10^5 cells/ml depending on the screening strain. […] Other positive control dishes contained 5 mM cAMP in the 5FOA medium for PDEs that lack appropriate control compounds. Cultures were grown for 48 hours at 30° C., sealed in an airtight container with moist paper towels to prevent evaporation. Optical densities (OD600) of cultures were measured using a microplate reader. Bioinformatic analysis of the results to determine composite Z scores was performed as previously described (1, 3).

T4 sequence (Q13946 whole entry, the tested form may be a part): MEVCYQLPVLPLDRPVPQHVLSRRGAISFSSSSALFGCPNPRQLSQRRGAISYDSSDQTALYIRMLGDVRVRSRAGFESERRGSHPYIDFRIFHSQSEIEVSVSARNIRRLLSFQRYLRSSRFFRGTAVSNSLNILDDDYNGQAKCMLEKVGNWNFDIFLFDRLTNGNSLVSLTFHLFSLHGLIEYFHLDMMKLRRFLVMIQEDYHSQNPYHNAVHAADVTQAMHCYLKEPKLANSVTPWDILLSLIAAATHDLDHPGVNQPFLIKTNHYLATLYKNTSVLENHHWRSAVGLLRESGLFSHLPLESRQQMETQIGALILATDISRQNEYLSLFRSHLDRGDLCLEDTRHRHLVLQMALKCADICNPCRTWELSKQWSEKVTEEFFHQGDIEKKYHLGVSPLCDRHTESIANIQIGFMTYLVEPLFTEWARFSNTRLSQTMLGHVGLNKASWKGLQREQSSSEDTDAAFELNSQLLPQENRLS

CCCCCC[C@@H]([C@@H](C)O)n1cnc2c(N)ncnc21 (racemic) [EHNA, erythro-9-(2-hydroxy-3-nonyl)adenine]
β-galactosidase activity, PDE2A strain (PDE2A [1]; 5 μM EHNA): 473 ± 19 | β-galactosidase activity, PDE2A strain (PDE2A [1]; 20 μM EHNA): 197 ± 51 | β-galactosidase activity, PDE2A strain (PDE2A [1]; 200 μM EHNA): 45 ± 3 | PDE2A inhibition judged by cAMP levels (PDE2A [2]): partial inhibition

COc1ccc(C2CNC(=O)C2)cc1OC1CCCC1 (stereo not drawn) [Rolipram, rolipram]
β-galactosidase activity, PDE8A strain (PDE8A [3]; 50 μM Rolipram): 253 ± 46 | β-galactosidase activity, PDE8A strain (PDE8A [3]; 100 μM Rolipram): 237 ± 67 | cAMP levels in PDE8A strain on treatment (PDE8A [4]): completely insensitive | β-galactosidase activity, Cgs2 strain (Cgs2; 50 μM Rolipram): 1807 ± 446 | β-galactosidase activity, Cgs2 strain (Cgs2; 100 μM Rolipram): 1784 ± 429 | Result in high throughput screens for 5FOA-resistant growth [5]: only affected the PDE4A- and PDE4B-expressing strains

COc1ccc2c(c1)C1(C)CCC(=O)CC1CC2 (single isomer, unassigned) [Compound 11]
cAMP Response (%BRL50481), PDE 7A (PDE7A): 89.00 %BRL50481 | PDE inhibitor profile in words (table footnote / summary) [6]: (3) Strong PDE7A inhibitor
